# Laboratory results reported in patent publication US20050038113A1, “Valproic acid and derivatives for the combinatorial therapeutic treatment of human cancers and for the treatment of tumor metastasis and minimal residual disease” (G2M Cancer Drugs AG, priority 2001, published 2005).
# Key:
# [1] = tested on: SKBR3 breast carcinoma cells; experiment: MTT cell viability assay; type: cell-based, Human; details: for cell viability: single reagent, valproic acid 3 mM
# Procedure: (§1) Human MDA-MB468, MDA-MB453 and SKBR3 breast carcinoma cells and A431 squamous cell carcinoma cells were maintained in Dulbecco's modified Eagle's medium (DMEM, BioWhittaker, Verviers, Belgium) supplemented with 10% heat inactivated fetal bovine serum (FBS), 2 mM L-glutamine, 100 units/ml penicillin, and 100 μg/ml streptomycin.
# (§2) Tumor cells were seeded in 96 well plates at a density of 1×10^4 cells/well in normal growth medium. […] Control cells were grown in the absence of valproic acid or antibodies. 10 μl of 10 mg/ml 3-(4,5-dimethylthiazole-2-yl)-2,5 diphenyltetrazolium bromide (MTT) (Sigma, Deisenhofen, Germany) in PBS were added to each well and the cells were incubated for another 3 h. Cells were lysed by the addition of 90 μl of lysis buffer (20% SDS in 50% dimethyl formamide, pH 4.7). After solubilization of the formazan product, the absorption at 590 nm was determined in a microplate reader (Dynatech, Denkendorf, Germany) and the relative amount of viable cells in comparison to cells cultured without the addition of valproic acid or antibodies was calculated.
# (§3) Human SKBR3 breast carcinoma cells, A431 squamous cell carcinoma cells and SKOV3 ovarian carcinoma cells were maintained in Dulbecco's modified Eagle's medium (DMEM, BioWhittaker, Verviers, Belgium) supplemented with 10% heat-inactivated fetal bovine serum (FBS), 2 mM L-glutamine, 100 units/ml penicillin, and 100 μg/ml streptomycin.
# (§4) Tumor cells were seeded in 96 well plates at a density of 1×10^4 cells/well in normal growth medium. […] Renca-lacZ/ErbB2, Renca-lacZ/EGFR and Renca-lacZ/EGFRvIII cells were treated for 40 h with valproic acid at a final concentration of 1 mM, or 10 ng/ml of the recombinant anti-ErbB2 single chain antibody-toxin scFv(FRP5)-ETA, or 1 ng/ml of the recombinant anti-EGF receptor single chain antibody-toxin scFv(14E1)-ETA, or a combination of valproic acid with either scFv(FRP5)-ETA or scFv(14E1)-ETA at the same concentrations. Control cells were grown in the absence of valproic acid or antibody-toxins. Ten μl of 10 mg/ml 3-(4,5-dimethylthiazole-2-yl)-2,5 diphenyltetrazolium bromide (MTT) (Sigma, Deisenhofen, Germany) in PBS were added to each well and the cells were incubated for another 3 h. Cells were lysed by the addition of 90 μl of lysis buffer (20% SDS in 50% dimethyl formamide, pH 4.7). After solubilization of the formazan product, the absorption at 590 nm was determined in a microplate reader (Dynatech, Denkendorf, Germany) and the relative amount of viable cells in comparison to cells cultured without the addition of valproic acid or antibody-toxins was calculated.
# [2] = tested on: A431 squamous cell carcinoma cells; experiment: MTT cell viability assay; type: cell-based, Human; details: for cell viability: single reagent, valproic acid 3 mM
# Procedure: as §1, §2, §3, §4
# [3] = tested on: histone deacetylases; details: cited from earlier work
# [4] = tested on: A-549 non-small cell lung cancer cells; experiment: SRB-assay, reduction in total cellular biomass; type: cell-based, human; details: 0.75 mM VPA in combination with Gemcitabine, 48 hours, compared to either alone
# Procedure: (§5) The reduction in cellular biomass was measured by SRB-assay. For this assay cells were seeded in 96 well culture dishes at densities between 3000 and 8000 cells per well. […] Cultures were fixed with cold TCA producing a final TCA concentration of 10%. After 1 hour of incubation at 4° C. the cells were washed five times with water and air dried. Fixed cells were stained for 30 minutes with 0,4% (wt/vol) Sulforhodamine B (SRB) dissolved in 1% acetic acid and washed four times with 1% acetic acid to remove unbound dye. After air drying bound dye was solubilized with 10 mM unbuffered Tris base (pH 10,5) for 5 minutes. Optical densities were read on a Titertek Multiskan Plus spectrophotometric plate reader at 550 nm. Six test wells for each dose-response were set in parallel with 12 growth control wells per cell line. A measure of the cell population density at time 0 (To; the time at which the drug was added) was also made from 12 extra reference wells of cells fixed with TCA just prior to drug addition to the test plates. Background OD of complete medium with 5% FBS fixed and stained as described above was also determined in 12 separate wells. From the unprocessed OD data from each microtiter plate the background OD measurements (i.e. OD of complete medium plus stain and OD of cells at T0) were subtracted thus giving the reduction of cellular biomass of the cells.
# [5] = tested on: COLO320DM colon cancer cells; experiment: SRB-assay, reduction in total cellular biomass; type: cell-based, human; details: 0.75 mM VPA in combination with Camptothecin, 48 hours
# Procedure: as §5
# [6] = tested on: HCT-116 colon cancer cells; experiment: cell counts and propidium iodide cell cycle/apoptosis analysis; type: cell-based, human
# Procedure: For FIG. 14 cells were seeded in 6 well culture dishes at 100000 cells/well. The day after, they were treated with the indicated drugs (5-FU: 2 μM 5-Fluoruracile; AD: 20 ng/ml adriamycin; IT: 3 μM irinothecan), and then cultured for further 48 hours. Cells were counted at 24 h and 48 h after treatment. All of the assays have been performed in triplicate.
# For FIG. 15 cells were seeded in 6 well culture dishes at 100000 cells/well. […] (A), results of triplicate counts of viable cells. (B), cells were stained with propidium iodide after permeabilization and fixation. Results of a cell cycle analysis are presented as percentage (%) of cells in G1, S, G2+M, and sub-G1 (apoptotic cells): all of the assays have been performed in triplicate.
# (A), results of triplicate counts of viable cells. (B), cells were stained with propidium iodide after permeabilization and fixation. Results of a cell cycle analysis are presented as percentage (%) of apoptotic cells: all of the assays have been performed in triplicate.
# For FIG. 17 cells were seeded in 10 cm culture dishes (1 million cells/dish). […] The day after, they were treated with the following drugs: 5-FU (panel A), AD (B), or IT (C), at the concentrations as indicated for FIG. 14. Cells were analyzed at the day of treatment, 24 h, and 48 h following treatment. Upper panels, results of triplicate counts of viable cells. Lower panels, cells were stained with propidium iodide after permeabilization and fixation. Results of a cell cycle analysis are presented as percentage (%) of apoptotic cells: all of the assays have been performed in triplicate.
# [7] = 3 mM valproic acid + 10 ng/ml scFv(14E1)-ETA, 40 h
# [8] = 3 mM valproic acid + 10 ng/ml scFv(FRP5)-ETA, 40 h
# [9] = 40 h, scFv(FRP5)-ETA 10 ng/ml, scFv(14E1)-ETA 10 ng/ml
structure (smiles),measurement,setting,value
"CCCC(CCC)C(=O)O [VPA, 2-propylpentanoic acid]","cell viability, combination treatment",[1]; [7],pronounced additive therapeutic effect
same,"cell viability, combination treatment",[1]; [8],pronounced additive therapeutic effect
same,"cell viability, combination treatment","[1]; 3 mM valproic acid + 2 μg/ml Herceptin, 70 h",pronounced additive therapeutic effect
same,cell viability,[1]; [9],inhibit the viability
same,cell viability,"[1]; 70 h, Herceptin 2 μg/ml",inhibit the viability
same,"cell viability, combination treatment","[2]; 3 mM VPA + 2 μg/ml c225, 70 h",synergistic reduction of cell viability
same,"cell viability, combination treatment",[2]; [7],pronounced additive therapeutic effect
same,"cell viability, combination treatment",[2]; [8],pronounced additive therapeutic effect
same,cell viability,[2]; [9],inhibit the viability
same,cell viability,"[2]; 70 h, c225 2 μg/ml",inhibit the viability
same,histone deacetylase inhibition,[3],acts as an inhibitor of histone deacetylases
same,reduction in cellular biomass,[4],clear additive reduction in cellular biomass
same,reduction in cellular biomass,[5],clear reduction in cellular biomass
same,cell growth,"[6]; 5-FU 2 μM in combination with VPA 1 mM, 72 hours",strong synergistic reduction in cell growth
same,apoptosis,"[6]; 5-FU 2 μM in combination with VPA 1 mM, 72 hours, vs 5-FU alone",much higher levels of apoptosis
same,apoptosis,"[6]; VPA 1 mM pre-treatment three days, then VPA+AD (20 ng/ml) up to 48 hours",dramatic synergistic enhancement of apoptosis
same,apoptosis,"[6]; VPA 1 mM pre-treatment three days, then VPA+FU (2 μM) up to 48 hours",dramatic synergistic enhancement of apoptosis
same,apoptosis,"[6]; VPA 1 mM pre-treatment three days, then VPA+IT (3 μM) up to 48 hours",dramatic synergistic enhancement of apoptosis
same,apoptosis,"[6]; VPA alone, up to one week",did not induce apoptosis
same,cell number,"[6]; VPA alone, up to one week",only minimally affected cell number
